Results published in PubChem BioAssay AID1259407 (Chemical Carcinogenesis Research Information System (CCRIS), 2018).
Active and inactive are the calls of the source. The rule behind the calls is not given here.

System: CCRIS mutagenicity, Ames/micronucleus/aberration tests
Assay: CCRIS mutagenicity studies
[1] = Test System: AMES SALMONELLA TYPHIMURIUM, Strain/Indicator: TA98, Metabolic Activation: NONE, Method: PREINCUBATION
[2] = Test System: AMES SALMONELLA TYPHIMURIUM, Strain/Indicator: TA100, Metabolic Activation: NONE, Method: PREINCUBATION
[3] = Test System: MOUSE LYMPHOMA, Strain/Indicator: L5178Y (TK+/TK-), Metabolic Activation: NONE, Method: SUSPENSION/PLATE
[4] = Test System: AMES SALMONELLA TYPHIMURIUM, Strain/Indicator: TA97A, Metabolic Activation: NONE, Method: STANDARD PLATE
[5] = Test System: AMES SALMONELLA TYPHIMURIUM, Strain/Indicator: TA98, Metabolic Activation: NONE, Method: STANDARD PLATE
[6] = Test System: AMES SALMONELLA TYPHIMURIUM, Strain/Indicator: TA98, Metabolic Activation: RAT, LIVER, S-9, AROCLOR 1254, Method: STANDARD PLATE
[7] = Test System: AMES SALMONELLA TYPHIMURIUM, Strain/Indicator: TA100, Metabolic Activation: NONE, Method: STANDARD PLATE
[8] = Test System: AMES SALMONELLA TYPHIMURIUM, Strain/Indicator: TA100, Metabolic Activation: RAT, LIVER, S-9, AROCLOR 1254, Method: STANDARD PLATE
[9] = Test System: AMES SALMONELLA TYPHIMURIUM, Strain/Indicator: TA1535, Metabolic Activation: NONE, Method: STANDARD PLATE
[10] = Test System: AMES SALMONELLA TYPHIMURIUM, Strain/Indicator: TA1535, Metabolic Activation: RAT, LIVER, S-9, AROCLOR 1254, Method: STANDARD PLATE
[11] = Test System: AMES SALMONELLA TYPHIMURIUM, Strain/Indicator: TA1537, Metabolic Activation: NONE, Method: STANDARD PLATE
[12] = Test System: AMES SALMONELLA TYPHIMURIUM, Strain/Indicator: TA1537, Metabolic Activation: RAT, LIVER, S-9, AROCLOR 1254, Method: STANDARD PLATE
[13] = Test System: AMES SALMONELLA TYPHIMURIUM, Strain/Indicator: TA1538, Metabolic Activation: NONE, Method: STANDARD PLATE
[14] = Test System: AMES SALMONELLA TYPHIMURIUM, Strain/Indicator: TA1538, Metabolic Activation: RAT, LIVER, S-9, AROCLOR 1254, Method: STANDARD PLATE

O=C(O)CCC(=O)OC[C@@H](NC(=O)C(Cl)Cl)[C@H](O)c1ccc([N+](=O)[O-])cc1
mutagenic call (Test System: AMES SALMONELLA TYPHIMURIUM, Strain/Indicator: TA98, Metabolic Activation: HAMSTER, LIVER, S-9, AROCLOR 1254 (10%), Method: PREINCUBATION): inactive; negative
mutagenic call [1]: inactive; negative
mutagenic call (Test System: AMES SALMONELLA TYPHIMURIUM, Strain/Indicator: TA98, Metabolic Activation: RAT, LIVER, S-9, AROCLOR 1254 (10%), Method: PREINCUBATION): inactive; negative
mutagenic call (Test System: AMES SALMONELLA TYPHIMURIUM, Strain/Indicator: TA100, Metabolic Activation: HAMSTER, LIVER, S-9, AROCLOR 1254 (10%), Method: PREINCUBATION): inactive; negative
mutagenic call [2]: inactive; negative
mutagenic call (Test System: AMES SALMONELLA TYPHIMURIUM, Strain/Indicator: TA100, Metabolic Activation: RAT, LIVER, S-9, AROCLOR 1254 (10%), Method: PREINCUBATION): inactive; negative
mutagenic call (Test System: AMES SALMONELLA TYPHIMURIUM, Strain/Indicator: TA1535, Metabolic Activation: HAMSTER, LIVER, S-9, AROCLOR 1254 (10%), Method: PREINCUBATION): inactive; negative
mutagenic call (Test System: AMES SALMONELLA TYPHIMURIUM, Strain/Indicator: TA1535, Metabolic Activation: NONE, Method: PREINCUBATION): inactive; negative
mutagenic call (Test System: AMES SALMONELLA TYPHIMURIUM, Strain/Indicator: TA1535, Metabolic Activation: RAT, LIVER, S-9, AROCLOR 1254 (10%), Method: PREINCUBATION): inactive; negative
mutagenic call (Test System: AMES SALMONELLA TYPHIMURIUM, Strain/Indicator: TA1537, Metabolic Activation: HAMSTER, LIVER, S-9, AROCLOR 1254 (10%), Method: PREINCUBATION): inactive; negative
mutagenic call (Test System: AMES SALMONELLA TYPHIMURIUM, Strain/Indicator: TA1537, Metabolic Activation: NONE, Method: PREINCUBATION): inactive; negative
mutagenic call (Test System: AMES SALMONELLA TYPHIMURIUM, Strain/Indicator: TA1537, Metabolic Activation: RAT, LIVER, S-9, AROCLOR 1254 (10%), Method: PREINCUBATION): inactive; negative
mutagenic call [3]: active; positive
mutagenic call (Test System: MOUSE LYMPHOMA, Strain/Indicator: L5178Y (TK+/TK-), Metabolic Activation: RAT, LIVER, S-9, AROCLOR 1254, Method: SUSPENSION/PLATE): active; positive
mutagenic call (Test System: MOUSE LYMPHOMA, Strain/Indicator: L5178Y (TK+/TK-), Metabolic Activation: RAT, LIVER, S-9, Method: SUSPENSION/PLATE): active; positive

CC(=O)Nc1ccc2ccccc2n1
mutagenic call [1]: inactive; negative
mutagenic call (Test System: AMES SALMONELLA TYPHIMURIUM, Strain/Indicator: TA98, Metabolic Activation: RAT, LIVER, S-9, KANECHLOR 500, Method: PREINCUBATION): inactive; negative
mutagenic call [2]: inactive; negative
mutagenic call (Test System: AMES SALMONELLA TYPHIMURIUM, Strain/Indicator: TA100, Metabolic Activation: RAT, LIVER, S-9, KANECHLOR 500, Method: PREINCUBATION): inactive; negative

C#C[C@]1(OC(C)=O)CC[C@H]2[C@@H]3CCC4=CC(=O)CC[C@@H]4[C@H]3CC[C@@]21C
mutagenic call (Test System: AMES SALMONELLA TYPHIMURIUM, Strain/Indicator: TA97A, Metabolic Activation: NONE, Method: HOST-MEDIATED): inactive; negative
mutagenic call [4]: inactive; negative
mutagenic call (Test System: AMES SALMONELLA TYPHIMURIUM, Strain/Indicator: TA97A, Metabolic Activation: RAT, LIVER, S-9, PHENOBARBITONE, Method: PREINCUBATION): inactive; negative
mutagenic call (Test System: AMES SALMONELLA TYPHIMURIUM, Strain/Indicator: TA98, Metabolic Activation: MOUSE, LIVER, S-9, Method: STANDARD PLATE): inactive; negative
mutagenic call (Test System: AMES SALMONELLA TYPHIMURIUM, Strain/Indicator: TA98, Metabolic Activation: NONE, Method: HOST-MEDIATED): inactive; negative
mutagenic call [5]: inactive; negative
mutagenic call [6]: inactive; negative
mutagenic call (Test System: AMES SALMONELLA TYPHIMURIUM, Strain/Indicator: TA98, Metabolic Activation: RAT, LIVER, S-9, PHENOBARBITONE, Method: PREINCUBATION): inactive; negative
mutagenic call (Test System: AMES SALMONELLA TYPHIMURIUM, Strain/Indicator: TA100, Metabolic Activation: MOUSE, LIVER, S-9, Method: STANDARD PLATE): inactive; negative
mutagenic call (Test System: AMES SALMONELLA TYPHIMURIUM, Strain/Indicator: TA100, Metabolic Activation: NONE, Method: HOST-MEDIATED): inactive; negative
mutagenic call [7]: inactive; negative
mutagenic call [8]: inactive; negative
mutagenic call (Test System: AMES SALMONELLA TYPHIMURIUM, Strain/Indicator: TA100, Metabolic Activation: RAT, LIVER, S-9, PHENOBARBITONE, Method: PREINCUBATION): inactive; negative
mutagenic call (Test System: AMES SALMONELLA TYPHIMURIUM, Strain/Indicator: TA1535, Metabolic Activation: MOUSE, LIVER, S-9, Method: STANDARD PLATE): inactive; negative
mutagenic call (Test System: AMES SALMONELLA TYPHIMURIUM, Strain/Indicator: TA1535, Metabolic Activation: NONE, Method: HOST-MEDIATED): inactive; negative
mutagenic call [9]: inactive; negative
mutagenic call [10]: inactive; negative
mutagenic call (Test System: AMES SALMONELLA TYPHIMURIUM, Strain/Indicator: TA1535, Metabolic Activation: RAT, LIVER, S-9, PHENOBARBITONE, Method: PREINCUBATION): inactive; negative
mutagenic call (Test System: AMES SALMONELLA TYPHIMURIUM, Strain/Indicator: TA1537, Metabolic Activation: MOUSE, LIVER, S-9, Method: STANDARD PLATE): inactive; negative
mutagenic call [11]: inactive; negative
mutagenic call [12]: inactive; negative
mutagenic call (Test System: AMES SALMONELLA TYPHIMURIUM, Strain/Indicator: TA1538, Metabolic Activation: MOUSE, LIVER, S-9, Method: STANDARD PLATE): inactive; negative
mutagenic call [13]: inactive; negative
mutagenic call [14]: inactive; negative

C[C@]12CC[C@H](O)CC1=CC[C@@H]1[C@@H]2CC[C@]2(C)C(=O)CC[C@@H]12
mutagenic call (Test System: AMES SALMONELLA TYPHIMURIUM, Strain/Indicator: TA102, Metabolic Activation: RAT LIVER S-9, PHENOBARBITAL AND 5,6-BENZOFLAVONE, Method: STANDARD PLATE): inactive; negative
mutagenic call (Test System: AMES SALMONELLA TYPHIMURIUM, Strain/Indicator: TA2638, Metabolic Activation: RAT LIVER S-9, PHENOBARBITAL AND 5,6-BENZOFLAVONE, Method: STANDARD PLATE): inactive; negative
mutagenic call (Test System: E. COLI, Strain/Indicator: WP2 (PKM101), Metabolic Activation: RAT LIVER S-9, PHENOBARBITAL AND 5,6-BENZOFLAVONE, Method: STANDARD PLATE): inactive; negative
mutagenic call (Test System: E. COLI, Strain/Indicator: WP2 UVRA (PKM101), Metabolic Activation: RAT LIVER S-9, PHENOBARBITAL AND 5,6-BENZOFLAVONE, Method: STANDARD PLATE): inactive; negative
mutagenic call (Test System: UDS RAT HEPATOCYTES, Strain/Indicator: THY INCORP (18-20 HR), Metabolic Activation: NONE, Method: LIQUID SCINTILLATION COUNTING): inactive; negative

CC(C)(C)CC(C)(C)c1ccc(OCCO)cc1
mutagenic call [3]: inactive; negative

O=C(O)CCCc1c[nH]c2ccccc12
mutagenic call [4]: inactive; negative
mutagenic call (Test System: AMES SALMONELLA TYPHIMURIUM, Strain/Indicator: TA97A, Metabolic Activation: RAT, LIVER, S-9, AROCLOR 1254, Method: STANDARD PLATE): inactive; negative
mutagenic call [5]: inactive; negative
mutagenic call [6]: inactive; negative
mutagenic call [7]: inactive; negative
mutagenic call [8]: inactive; negative
mutagenic call [9]: inactive; negative
mutagenic call [10]: inactive; negative
mutagenic call [11]: inactive; negative
mutagenic call [12]: inactive; negative
mutagenic call [13]: inactive; negative
mutagenic call [14]: inactive; negative
